From patent US11518760B2 (Liverpool School of Tropical Medicine, priority 2017, dated 2022)

Each compound was assayed on C6/36 Aedes albopictus cell line infected with Wolbachia pipientis (Wolbachia strain wAlbB) (assay: In vitro insect cell line assay (anti-Wolbachia screen, SYTO 11 high content imaging)). Details: 168 h; C6/36 Aedes albopictus cells infected with Wolbachia pipientis wAlbB, 7 days incubation, SYTO 11 imaging; read-out: In vitro anti-Wolbachia activity.
Format: cell-based
Procedure: A C6/36 Aedes albopictus cell line infected with Wolbachia pipientis (Wolbachia strain wAlbB) derived from Aa23 A. albopictus cell line (O'Neill et al., 1997; Insect Mol Biol; Turner et al., (2006) J. Immunol. 7:1240-1249) was used to screen compounds. Cells were cultured in Leibovitz's L15+L-glutamine supplemented with heat-inactivated Foetal Calf Serum (HI-FCS), non-essential amino acids and tryptose phosphate broth. Culture medium was filter-sterilized through a 0.2 μm filter and stored at 4° C. Compounds were provided as 10 mM stocks in DMSO, diluted to 50 μM working stock to give final concentration of 5 μM on the test plate. Concentrated stocks were frozen at −20° C.
Prior to use in the screening assay, cell cultures were sub-passaged (6 days prior) to provide ˜90% confluent cells on Day 0 of screening assay. On Day 0 (assay set-up), the medium was removed from the stock culture flask and replaced with fresh medium. The cells were detached by scraping and cell density was calculated using an automated cell counter. The cells were then diluted at working density and aliquoted at 90 μl to each well of a Cell Carrier 384 well plate (Perkin Elmer). Cell plates were incubated at 26° C.
Control solution (DMSO-medium) was dispensed at 10 μl per well for “untreated” wells. Test solution (Drug-DMSO) was also dispensed at 10 μl (from working plate) per well for “treated” wells. The plates were incubated at 26° C., inside plastic wallet in incubator, for 7 days.
On Day 7, 25 μl of staining medium/dye (SYTO 11, Life Technologies) was added to each sample well and allowed to stain for 15 minutes in the dark. All the medium was removed from each sample well without disturbing the cells and replaced with 100 μl of fresh medium. Plates were imaged on the Operetta High Content Imaging system (Perkin Elmer) and analyzed using texture analysis through Harmony software (Perkin Elmer). The cell-based screen and analysis are described in detail in Clare et al. (2014) J Biomol Screen.

First: CN(Cc1ccccc1C(F)(F)F)c1ncnc2ccsc12 [Example 44, N-methyl-N-(2-(trifluoromethyl)benzyl)thieno[3,2-d]pyrimidin-4-amine]
Second: CCN(Cc1ccccc1C(F)(F)F)c1ncnc2ccsc12 [Example 54, N-ethyl-N-(2-(trifluoromethyl)benzyl)thieno[3,2-d]pyrimidin-4-amine]
The EC50 of the first is higher: 10 to 100 nM for the first, 1 to 10 nM for the second. The second is the more potent here.

First: COc1cccc(CNc2ncnc3ccsc23)c1C(F)(F)F [Example 51, N-(3-methoxy-2-(trifluoromethyl)benzyl)thieno[3,2-d]pyrimidin-4-amine]
Second: Fc1ccccc1CNc1ncnc2ccsc12 [Example 22, N-(2-fluorobenzyl)thieno[3,2-d]pyrimidin-4-amine]
The EC50 of the first is lower: 10 to 100 nM for the first, 1000 to 100000 nM for the second.

First: CC(C)Nc1nc(NCc2c(Cl)cccc2Cl)c2sccc2n1 [Example 27, N^4-(2,6-dichlorobenzyl)-N-isopropylthieno[3,2-d]pyrimidine-2,4-diamine]
Second: CC(C)Nc1nc(NCc2ccccc2Cl)c2sccc2n1 [Example 17, N^4-(2-chlorobenzyl)-N^2-isopropylthieno[3,2-d]pyrimidine-2,4-diamine]
The EC50 of the first is higher: 1000 to 100000 nM for the first, 10 to 100 nM for the second.

First: FC(F)(F)c1ncccc1CNc1nc(N2CCOC3CC32)nc2ncccc12 (stereo not shown) [Example 294, 2-(2-oxa-5-azabicyclo[4.1.0]heptan-5-yl)-N-((2-(trifluoromethyl)pyridin-3-yl)methyl)pyrido[2,3-d]pyrimidin-4-amine]
Second: N#CC1CCCN1c1nc(NCc2cccnc2C(F)(F)F)c2cccnc2n1 (stereo not shown) [Example 238, 1-(4-(((2-(trifluoromethyl)pyridin-3-yl)methyl)amino)pyrido[2,3-d]pyrimidin-2-yl)pyrrolidine-2-carbonitrile]
The EC50 of the first is lower: 0.01 to 1 nM for the first, 10 to 100 nM for the second. The first is the more potent here.

First: FC1(F)CCN(Cc2nc(NCc3cccnc3C(F)(F)F)c3cccnc3n2)C1 [Example 230, 2-((3,3-difluoropyrrolidin-1-yl)methyl)-N-((2-(trifluoromethyl)pyridin-3-yl)methyl)pyrido[2,3-d]pyrimidin-4-amine]
Second: FC(F)(F)c1ncccc1CNc1nc(N2CCOC3(CC3)C2)nc2ncccc12 [Example 256, 2-(4-oxa-7-azaspiro[2.5]octan-7-yl)-N-((2-(trifluoromethyl)pyridin-3-yl)methyl)pyrido[2,3-d]pyrimidin-4-amine]
The EC50 of the first is higher: 1000 to 100000 nM for the first, less than 0.01 nM for the second. The second is the more potent here.

First: CC(C)N(C)c1nc(N2CCCN2c2ccccc2C(F)(F)F)c2cccnc2n1 [Example 190, N-isopropyl-N-methyl-4-(2-(2-(trifluoromethyl)phenyl)pyrazolidin-1-yl)pyrido[2,3-d]pyrimidin-2-amine]
Second: CC(C)N(C)c1nc(N(C)Cc2cccnc2C(F)(F)F)c2cccnc2n1 [Example 161, N^2-isopropyl-N^2,N^4-dimethyl-N^4-((2-(trifluoromethyl)pyridin-3-yl)methyl)pyrido[2,3-d]pyrimidine-2,4-diamine]
The EC50 of the first is higher: 100 to 1000 nM for the first, 1 to 10 nM for the second. The second is the more potent here.

First: CC1COCCN1c1nc(NCc2cccnc2C(F)(F)F)c2cncnc2n1 (stereo not shown) [Example 306, 2-(3-methylmorpholino)-N-((2-(trifluoromethyl)pyridin-3-yl)methyl)pyrimido[4,5-d]pyrimidin-4-amine]
Second: CC1COCCN1c1nc(NCc2cccnc2C(F)(F)F)c2cc(F)cnc2n1 (stereo not shown) [Example 303, 6-fluoro-2-(3-methylmorpholino)-N-((2-(trifluoromethyl)pyridin-3-yl)methyl)pyrido[2,3-d]pyrimidin-4-amine]
The EC50 of the first is higher: 1000 to 100000 nM for the first, 100 to 1000 nM for the second.

First: FC(F)(F)c1ccccc1CNc1nc(Cl)nc2ccsc12 [Example 46, 2-chloro-N-(2-(trifluoromethyl)benzyl)thieno[3,2-d]pyrimidin-4-amine]
Second: CC(O)c1nc(NCc2ccccc2C(F)(F)F)c2sccc2n1 (stereo not shown) [Example 84]
The EC50 of the first is lower: 10 to 100 nM for the first, 1000 to 100000 nM for the second. The first is the more potent here.

First: FC(F)(F)c1ncccc1CNc1ncnc2ncc(Br)cc12 [Example 180]
Second: CC(C)S(=O)(=O)c1nc(NCc2cccnc2C(F)(F)F)c2cccnc2n1 [Example 179, 2-(isopropylsulfonyl)-N-((2-(trifluoromethyl)pyridin-3-yl)methyl)pyrido[2,3-d]pyrimidin-4-amine]
The EC50 of the first is higher: 1000 to 100000 nM for the first, 10 to 100 nM for the second.

Compared with COc1ccc(CNc2nc(NC(C)C)nc3ccsc23)cc1OC [Example 133, N^4-(3,4-dimethoxybenzyl)-N^2-isopropylthieno[3,2-d]pyrimidine-2,4-diamine], CC(C)Nc1nc(NCc2ccc(S(C)(=O)=O)cc2)c2cccnc2n1 [Example 128, N^2-isopropyl-N^4-(4-(methylsulfonyl)benzyl)pyrido[2,3-d]pyrimidine-2,4-diamine] is lower in EC50: 1000 to 100000 nM for the first, 100 to 1000 nM for the second.

CC(Nc1ncnc2cc(C3CC3)sc12)c1ccccc1C(F)(F)F (stereo not shown) [Example 99, 6-cyclopropyl-N-(1-(2-(trifluoromethyl)phenyl)ethyl)thieno[3,2-d]pyrimidin-4-amine] and CC(Nc1ncnc2c(Br)csc12)c1ccccc1C(F)(F)F (stereo not shown) [Example 106, 7-bromo-N-(1-(2-(trifluoromethyl)phenyl)ethyl)thieno[3,2-d]pyrimidin-4-amine] fall in the same range of EC50: 1000 to 100000 nM for the first, 1000 to 100000 nM for the second.

Compared with FC1(F)CCN(c2nc(N3CCC3c3ccccc3C(F)(F)F)c3cccnc3n2)C1 (stereo not shown) [Example 215, 2-(3,3-difluoropyrrolidin-1-yl)-4-(2-(2-(trifluoromethyl)phenyl)azetidin-1-yl)pyrido(2,3-d]pyrimidine], FC1(F)CCN(c2nc(NCc3ccccc3C(F)(F)F)c3cccnc3n2)CC1 [Example 196, 2-(4,4-difluoropiperidin-1-yl)-N-(2-(trifluoromethyl)benzyl)pyrido[2,3-d]pyrimidin-4-amine] is lower in EC50: 10 to 100 nM for the first, 0.01 to 1 nM for the second.

First: FC(F)(F)c1ncccc1CNc1nc(N2CCC(C(F)(F)F)CC2)nc2ncccc12 [Example 235, 2-(4-(trifluoromethyl)piperidin-1-yl)-N-((2-(trifluoromethyl)pyridin-3-yl)methyl)pyrido[2,3-d]pyrimidin-4-amine]
Second: FC(F)(F)c1ncccc1CNc1nc(N2CCCC(C(F)(F)F)C2)nc2ncccc12 (stereo not shown) [Example 249, 2-(3-(trifluoromethyl)piperidin-1-yl)-N-((2-(trifluoromethyl)pyridin-3-yl)methyl)pyrido[2,3-d]pyrimidin-4-amine]
The EC50 of the first is higher: 0.01 to 1 nM for the first, less than 0.01 nM for the second. The second is the more potent here.

Compared with CN(C)c1nc(NCc2c(F)cccc2C(F)(F)F)c2cccnc2n1 [Example 169, N^4-(2-fluoro-6-(trifluoromethyl)benzyl)-N^2,N^2-dimethylpyrido[2,3-d]pyrimidine-2,4-diamine], CNCc1nc(NCc2ccccc2C(F)(F)F)c2cccnc2n1 [Example 145, 2-((methylamino)methyl)-N-(2-(trifluoromethyl)benzyl)pyrido[2,3-d]pyrimidin-4-amine] is higher in EC50: 100 to 1000 nM for the first, 1000 to 100000 nM for the second.

N#CC1CCCN(c2nc(NCc3ccccc3C(F)(F)F)c3cccnc3n2)C1 (stereo not shown) [Example 262, 1-(4-((2-(trifluoromethyl)benzyl)amino)pyrido[2,3-d]pyrimidin-2-yl)piperidine-3-carbonitrile] and CC1CCCN(c2nc(NCc3cccnc3C(F)(F)F)c3cccnc3n2)C1 (stereo not shown) [Example 311, 2-(3-methylpiperidin-1-yl)-N-((2-(trifluoromethyl)pyridin-3-yl)methyl)pyrido[2,3-d]pyrimidin-4-amine] fall in the same range of EC50: 0.01 to 1 nM for the first, 0.01 to 1 nM for the second.

First: CC1COC[C@@H](C)N1c1nc(NCc2cccnc2C(F)(F)F)c2cccnc2n1 (stereo partly drawn) [Example 275, 2-((3R)-3,5-dimethylmorpholino)-N-((2-(trifluoromethyl)pyridin-3-yl)methyl)pyrido[2,3-d]pyrimidin-4-amine]
Second: CC1(C)CCN(c2nc(NCc3cccnc3C(F)(F)F)c3cccnc3n2)CC1 [Example 233, 2-(4,4-dimethyipiperidin-1-yl)-N-((2-(trifluoromethyl)pyridin-3-yl)methyl)pyrido[2,3-d]pyrimidin-4-amine]
The EC50 of the first is lower: 0.01 to 1 nM for the first, 10 to 100 nM for the second. The first is the more potent here.

FC(F)(F)c1ccccc1CNc1nc(CN2CC(C(F)(F)F)C2)nc2ncccc12 [Example 226] and CC(C)Nc1nc(NCc2ccccc2C(F)(F)F)c2ccccc2n1 [Example 58, N^2-isopropyl-N^4-(2-(trifluoromethyl)benzyl)quinazoline-2,4-diamine] fall in the same range of EC50: 100 to 1000 nM for the first, 100 to 1000 nM for the second.

First: CC(C)Nc1nc(NCc2ccccc2S(C)(=O)=O)c2ncccc2n1 [Example 122, N^2-isopropyl-N^4-(2-(methylsulfonyl)benzyl)pyrido[3,2-d]pyrimidine-2,4-diamine]
Second: CS(=O)(=O)c1ccccc1CNc1ncnc2ccsc12 [Example 97, N-(2-(methylsulfonyl)benzyl)thieno[3,2-d]pyrimidin-4-amine]
The EC50 of the first is higher: 1000 to 100000 nM for the first, 100 to 1000 nM for the second.

For O=C(Nc1nc(NCc2cccnc2C(F)(F)F)c2cccnc2n1)Nc1ccccc1F [Example 206, 1-(2-fluorophenyl)-3-(4-(((2-(trifluoromethyl)pyridin-3-yl)methyl)amino)pyrido[2,3-d]pyrimidin-2-yl)urea], the EC50 was 100 to 1000 nM.
